Numbered stars: 1 amine (or outer) side, 2 acyl side, 3 side chain; on linkers, the order of the positions; unused ones are H or OH. Square brackets hold non-standard residues; d marks the D form. Peptide text beside a SMILES is read from it. X1 = CCCCCCOC(=O)N=C(NCCC[C@@H](N[*:1])C(=O)[*:2])NC(=O)OCCCCCC; NMeV = CN[C@H](C(=O)O)C(C)C; dNMeA = CN[C@H](C)C(=O)O
What was measured:
[1] = in vivo; cited from earlier work
physchem = conditions: pH 7.4, LogD, pH 7.4, reported value (mean or bound)
[2] = Pooled Human Liver Microsome assay; assay type: in vitro ADME
Excerpt: Peptide 12 P was subjected to additional in vitro assay to evaluate the involvement of liver metabolism using the Pooled Human Liver Microsome assay. Liver microsomes are subcellular particles derived from the endoplasmic reticulum of hepatic cells. These microsomes are a rich source of drug metabolizing enzymes, including cytochrome P-450. Microsome pools from various sources are useful in the study of xenobiotic metabolism and drug interactions. […] The presence of ketokonazole inhibits the metabolism by the liver enzymes in some degree. However, Incubating peptide 12P with self-assembling pro-nano lipospheres (PNL), led to much better inhibition of cytochromes P-450.

rat CYP3A4 microsomes = assay: Enzymatic inhibition study in isolated rat CYP3A4 microsomes; assay type: in vitro ADME; conditions: 60 min
CYP3A4 = assay: as above; assay type: in vitro ADME; conditions: rat, pooled rat CYP3A4 microsomes, pH 7.4; with ketoconazole; 60 min; read-out: concentration remaining after incubation, with ketoconazole
[3] = Pharmacokinetic study in rats after oral administration; assay type: in vivo, Wistar rats; conditions: rat
Procedure: In Vivo Studies. Male Wistar rats (Harlan, Israel), 275-300 g in weight, were used for all surgical procedures. Animals were anesthetized for the period of surgery by intraperitoneal injection of 1 mL/kg of ketamine/xylazine solution (9:1), placed on a heated surface, and maintained at 37° C. (Harvard Apparatus Inc., Holliston, MA). An indwelling cannula was placed in the right jugular vein of each animal for systemic blood sampling, by a method described before. The cannula was tunneled beneath the skin and exteriorized at the dorsal part of the neck. After completion of the surgical procedure, the animals were transferred to cages to recover overnight (12-18 h). During this recovery period, food but not water was deprived. Throughout the experiment, free access to food was available 4 h post oral administration. Animals were randomly assigned to the different experimental groups. […] Dispersed 12P SNEDDS (5 mg/kg) was administered to the animals by oral gavage (n=3). Systemic blood samples (0.35 mL) were taken at 5 min predose, 20, 40, 60, 90, 180, 240, and 360 min postdose. To prevent dehydration, equal volumes of physiological solution were administered to the rats following each withdrawal of blood sample. Plasma was separated by centrifugation (5322 g, 10 min) and stored at −20° C. pending analysis. In the 12P pharmacokinetic study, the parent peptide, 12, was analytically determined.
Pharmacokinetic Analysis. The area under the plasma concentration-time curve (AUC) was calculated by using the trapezoidal rule with extrapolation to infinity by dividing the last measured concentration by the elimination rate constant (kel). The elimination rate constant values were determined by a linear regression analysis using the last points on the logarithmic plot of the plasma concentration versus the time curve. Pharmacokinetic parameters, such Tmax, Cmax, clearance (CL), volume of distribution (V), and bioavailability, were calculated using noncompartmental analysis.
Analytical Methods. Plasma or BBMV samples were spiked with metoprolol (1.5 μg/mL) as an internal standard. ACN was added to each sample (2:1) and vortex-mixed for 1 min. The samples were then centrifuged (14 635 g, 10 min), and the supernatant was transferred to fresh glass tubes and evaporated to dryness (Vacuum Evaporation System, Labconco, Kansas City, MO, USA). Then, the glass tubes were reconstituted in 80 μL of mobile phase and centrifuged a second time (14 635 g, 10 min). The amount of the compounds was determined using an HPLC-MS Waters 2695 Separation Module, equipped with a Micromass ZQ detector. The resulting solution was injected (10 μL) into the HPLC system. The system was conditioned as follows: for parent drug peptides (including 12), a Kinetex 2.6 μm HILIC 100 Å, 100 mm×2.1 mm column (Phenomenex, Torrance, CA, USA), an isocratic mobile phase, and an acetonitrile:water:ammonium acetate buffer 50 mM (70:10:20, v/v/v) was used; and for the prodrug peptides (including 12P), a Luna (Phenomenex) 3 μm C8 100 Å, 100 mm×2.0 mm column and an isocratic mobile phase of ACN:water supplemented with 0.1% formic acid (70:30, v/v) and a flow rate of 0.2 mL/min at 25° C. was used. The limit of quantification for all of the peptides and prodrugs was 25 ng/mL.
The pharmacokinetic in-vivo study allows a further evaluation of the prodrug concept in the whole animal. The PK studies were performed in conscious Wistar male rats. An indwelling cannula was implanted in the jugular vein 24 hours before the PK experiment to allow full recovery of the animals from the surgical procedure. Animals (n=4) received either an IV bolus dose or oral dose of the investigated compound. Blood samples (with heparin, 15 U/ml) were collected at several time points for up to 6 hours post administration and was assayed by HPLC-MS method. Non-compartmental pharmacokinetic analysis was performed using WinNonlin software.

[4] = Metabolic stability in rat plasma; assay type: in vitro ADME; conditions: 37° C., up to 90 minutes
Procedure: The enzymatic reactions were performed as follows: 2 mM stock solutions of the tested compounds were diluted with serum or purified brush border membrane vesicles (BBMVs) solution to a final concentration of 0.5 mM. During incubation at 37° C. samples were taken for a period of 90 minutes. The enzymatic reaction was stopped by adding 1:1 v/v of ice cold acetonitrile and centrifuge (4000 g, 10 min) before analysis. Preparation of BBMVs: The BBMVs was prepared from combined duodenum, jejunum, and upper ileum (male Wistar rats) by a Ca^++ precipitation method. Purification of the BBMVs was assayed using GGT, LAP and alkaline phosphatase as membrane enzyme markers
Peptides 12 and 12p were subjected to rat plasma and followed their degradation. Rat plasma is known to be rich with esterases.

[5] = Caco-2 permeability study (Examples 1, 2 and 4, Table 3); assay type: in vitro ADME, human; conditions: Caco-2, unit inferred; read-out: Caco-2 A-to-B Papp (converted)
Procedure: The culture growth medium consisted of DMEM supplemented with 10% heat-inactivated FBS, 1% MEM-NEAA, 2 mM 1-glutamine, 1 mM sodium pyruvate, 50,000 units Penicillin G Sodium and 50 mg Streptomycin Sulfate (Biological Industries). The medium was replaced every other day.
Cells (passage 55-60) were seeded at density of 25×10^5 cells/cm^2 on untreated culture inserts of polycarbonate membrane with 0.4 μm pores and surface area of 1.1 cm^2. Culture inserts containing Caco-2 monolayer were placed in 12 mm transwell plates (Corning). Culture medium was replaced every other day. Transepithelial Electrical Resistance (TEER) values were measured by Millicell ERS-2 System (Millipore) a week after seeding up to experiment day (21-23 days) to ensure proliferation and differentiation of the cells. When the cells were fully differentiated and TEER values became stable (200-500 Ω·cm^2). The TEER values were compared to control inserts containing only the medium.
The experiment was initiated by replacing the medium from both sides by apical (600 μl) and basolateral (1500 μl) buffers, both warmed to 37° C. The Cells were incubated with the buffers solutions for 30 min at 37° C. on a shaker (100 cycles/min). The apical buffer was replaced by apical buffer containing 10 μg/ml of the cyclic peptides of the invention. 50 μl samples were taken from the apical side immediately at the beginning of the experiment, resulting in 550 μl apical volume during the experiment.
Permeability Coefficient (Papp) for each compound was calculated from the linear plot of drug accumulated versus time, using the following equation:
Where dq/dt is steady state appearance rate of the compound on the receiver side, Co is the initial concentration of the drug on the donor side, and A is the exposed tissue surface area (1.1 cm^2).
Transport studies were performed through the Caco-2 monolayer mounted in an Ussing-type chamber set-up with continuous trans-epithelial electrical resistance (TEER) measurements to assure TEER between 800 and 1200 Sr cm^2. HBSS supplemented with 10 mM MES and adjusted to pH 6.5 were used as transport medium in the donor compartment and pH 7.4 in the acceptor compartment. The donor solution contained the test compound.
Permeability mechanism of compounds is studied by evaluating the Papp of a compound from the apical to the basolateral (A-to-B) membrane and its Papp from the basolateral to the apical membrane (B-to-A). The A-to-B assay simulates passive and transporter-mediated permeability. The B-to-A assay is essential complementary experiment indicative of the activity of P-gp. The ratio of the A-to-B and B-to A Papps (efflux ratio) is calculated to determine the permeability mechanism.

[6] = oral 5 mg/kg, peptide 12 measured in plasma, 12P given as dispersed 12P SNEDDS

| SMILES | permeability in the PAMPA-GIT model system | Papp (AB), replicate 1 (Caco-2 cells) | half live in man [1] [h] | logD at 1 h (physchem) | metabolism by Pooled Human Liver Microsomes, in words [2] | concentration remaining after incubation, alone (rat CYP3A4 microsomes; 12P alone) [%] | concentration remaining after incubation, with SNEDDS (rat CYP3A4 microsomes; dispersed 12P SNEDDS) [%] | remaining at 1 h, 1 µM (CYP3A4) [%] | relative bioavailability vs peptide 12 ([3]; after oral administration) | AUC [3, 6] [µg·min/mL] | Cmax [3, 6] [ng/mL] | F [3, 6] [%] | Kel [3, 6] [min⁻¹] | Tmax, Median (range) [3, 6] | metabolic stability in rat plasma, in words [4] | Papp A→B [5] [×10⁻⁶ cm/s] |
| --- | --- | --- | --- | --- | --- | --- | --- | --- | --- | --- | --- | --- | --- | --- | --- | --- |
| CCCCCCOC(=O)N=C(NCCC[C@H]1NC(=O)[C@H](C(C)C)N(C)C(=O)[C@@H](C)N(C)C(=O)[C@@H](C)NC(=O)[C@@H](CC(=O)OC)NC(=O)CNC1=O)NC(=O)OCCCCCC [#29P*] (cyclo(G[dD](OMe)[dA][dNMeA][NMeV][X1])) | > -5 | 0.1 10^−6 cm/s | – | – | – | – | – | – | – | – | – | – | – | – | – | – |
| CC(C)[C@H]1C(=O)N[C@@H](CCCN=C(N)N)C(=O)NCC(=O)N[C@@H](CC(=O)O)C(=O)N[C@H](Cc2ccccc2)C(=O)N1C [Cilengitide, cyclo(RGDf-(NMe)V)] | low permeability | – | 4 | < -1 | – | – | – | – | – | – | – | – | – | – | – | – |
| CCCCCCOC(=O)N=C(NCCC[C@@H]1NC(=O)[C@@H](C)N(C)C(=O)[C@H](C)N(C)C(=O)[C@H](C)NC(=O)[C@H](CC(=O)OC)NC(=O)CNC1=O)NC(=O)OCCCCCC [Peptide 12P, c(*aR(Hoc)2GD(OMe)A*A)] | – | – | – | – | substrate for P-gp efflux system and cytochromes P-450 | 14.0±4.06 | 102.2±19.7 | 67 ± 3.61 | about 70 fold | 216.9 ± 75.6 | 1993 ± 967 | 43.8 ± 14.9 | 0.009 ± 0.0001 | 20 (20-60) min | degraded | 0.785 |

From patent publication US11965041B2, “N-methylated cyclic peptides and their prodrugs” (TECHNISCHE UNIVERSITAET MUENCHEN, priority 2017, dated 2024)
